Source: patent US20070167431A1, “Method for the treatment of cognitive dysfunction” (Wyeth, priority 2006, published 2007)
“Also recorded” adds a separate entry of the source. Where two headings read alike, the source gives them in different places.

What was measured:
recognition memory = format: in vivo; conditions: 48-hour interval
Excerpt: In this evaluation, donepezil (Aricept) is used as the acetylcholinesterase inhibitor component and 3-(1-naphthylsulfonyl)-5-piperazin-1-yl-1H-indazole (Test Compound A) is used as the 5-HT6 component. Novel object recognition is a single trial non-aversive learning paradigm that utilizes the rodent's natural tendency to explore an unfamiliar object more than a familiar one. The learning phase of the paradigm consists of recording the amount of time a rat explores two identical objects it has never seen before during a 5-minute period. Following a 48-hour interval, during which the animal is returned to its homecage, the animal is placed back into the same environment now containing one of the original objects (familiar) and one never experienced before (novel). Recognition memory is reflected as an increase in time spent exploring the novel object relative to that spent exploring the familiar one. The amount of time each animal spends exploring the two objects during the memory trial is analyzed using a repeated-measures ANOVA. […] All treatments were administered prior to the first trial either orally (Test Compound A) or i.p. (Aricept).

[1] = tested on: acetylcholine release in dorsal hippocampus; experiment: Acetylcholine release in rat dorsal hippocampus, microdialysis; format: in vivo, Sprague Dawley rats; conditions: rat dorsal hippocampus dialysate
Excerpt: Male Sprague Dawley rats were anesthetized with halothane and secured in a stereotaxic frame to allow implantation of a microdialysis guide cannula above the dorsal hippocampus (coordinatesXXX; Paxinos & Watson 1986). The guide cannula was secured using dental acrylic and two small skull screws. Following surgery, animals were individually housed in microdialysis cages with free access to food and water. The following day a microdialysis probe was inserted via the guide cannula into the hippocampus. Probes were perfused with artificial cerebrospinal fluid at a flow rate of 0.5 μl/min. Dialysates were collected every 40 min and were put on dry ice immediately after collection for subsequent analysis. A 3 h stabilization period was allowed following probe insertion after which time baseline samples were collected for 120 min. Rats were then dosed with Aricept (0.5 mg/kg i.p.) or vehicle (saline, 1 ml/kg i.p.). […] Following dosing, dialysis samples were collected for 200 min. At the end of the experiment, animals were euthanized and probe placement was verified histologically. Data from animals with incorrect probe placement were discarded. Dialysates were analyzed for ACh content using LC/MS/MS.

[2] = target: T1, human 5-HT6 receptor stabily transfected into HELA cells (Homo sapiens, UniProt P50406); experiment: 5-HT6 antagonist activity using cAMP accumulation; format: cell-based; conditions: decrease of cAMP relative to serotonin (100 nM); 100% Imax indicates 0% intrinsic activity
T1 construct: expressed in transfected cells; host or cells: HELA cells, stably transfected
Description: Intracellular cAMP levels are measured using 96-well plates containing the human 5-HT6 receptor stabily transfected into HELA cells. Upon initiation of the assay, the media from cell maintenance is aspirated and cells are preincubated at 37° C. for 15 mins. in KREBS buffer. Following this primary incubation, the buffer is aspirated and an additional incubation is performed at 37° C. for 5 mins. in KREBS buffer containing 500 uM IBMX (3-isobutyl-1-methylxanthine). Subsequently cells are incubated with test compound concentrations ranging from 10^-5 to 10^-10M for 10 minutes at 37° C. Serotonin (100 nM) is added to the treated cells and incubated for an additional 10 minutes at 37° C. The assay is terminated by the addition of 0.5M perchloric acid. Intracellular CAMP levels are determined by radioimmunoassay through the cAMP SPA screening kit. Data are analyzed graphically with GraphPad Prism (GraphPad Software, San Diego, Calif.). […] The value is recorded as Imax (%) and shown on Table I. (100% Imax indicates 0% intrinsic activity.)

[3] = target: T2, human cloned 5-HT6 receptors (Homo sapiens, UniProt P50406); experiment: 5-HT6 binding affinity, [3H]-LSD displacement on membranes of Hela cells
T2 construct: expressed in transfected cells; host or cells: Hela cells (membrane preparation)
Description: The affinity of test compounds for the serotonin 5-HT6 receptor is evaluated in the following manner. Cultured Hela cells expressing human cloned 5-HT6 receptors are harvested and centrifuged at low speed (1,000×g) for 10.0 min to remove the culture media. The harvested cells are suspended in half volume of fresh physiological phosphate buffered saline solution and recentrifuged at the same speed. This operation is repeated. The collected cells are then homogenized in ten volumes of 50 mM Tris.HCl (pH 7.4) and 0.5 mM EDTA. The homogenate is centrifuged at 40,000×g for 30.0 min and the precipitate is collected. The obtained pellet is resuspended in 10 volumes of Tris.HCl buffer and recentrifuged at the same speed. The final pellet is suspended in a small volume of Tris.HCl buffer and the tissue protein content is determined in aliquots of 10-25 μl volumes. […] The volume of the suspended cell membranes is adjusted to give a tissue protein concentration of 1.0 mg/ml of suspension. The prepared membrane suspension (10 times concentrated) is aliquoted in 1.0 ml volumes and stored at −70° C. until used in subsequent binding experiments.
Binding experiments are performed in a 96 well microtiter plate format, in a total volume of 200 μl. […] The test compounds are added in 20.0 μl volume.
The bound complex caught on the filter disk is allowed to air dry and the radioactivity is measured in a Packard TopCount® equipped with six photomultiplier detectors, after the addition of 40.0 μl Microscint®-20 scintillant to each shallow well.
Binding in the presence of varying concentrations of test compound is expressed as a percentage of specific binding in the absence of test compound. The results are plotted as log % bound versus log concentration of test compound. […] A linear regression line of data points is plotted, from which the IC50 value is determined and the Ki value is determined based upon the following equation: […]
where L is the concentration of the radioactive ligand used and KD is the dissociation constant of the ligand for the receptor, both expressed in nM.

[4] = 5-HT6 antagonist 1 mg/kg po alone

T2 sequence (P50406 whole entry): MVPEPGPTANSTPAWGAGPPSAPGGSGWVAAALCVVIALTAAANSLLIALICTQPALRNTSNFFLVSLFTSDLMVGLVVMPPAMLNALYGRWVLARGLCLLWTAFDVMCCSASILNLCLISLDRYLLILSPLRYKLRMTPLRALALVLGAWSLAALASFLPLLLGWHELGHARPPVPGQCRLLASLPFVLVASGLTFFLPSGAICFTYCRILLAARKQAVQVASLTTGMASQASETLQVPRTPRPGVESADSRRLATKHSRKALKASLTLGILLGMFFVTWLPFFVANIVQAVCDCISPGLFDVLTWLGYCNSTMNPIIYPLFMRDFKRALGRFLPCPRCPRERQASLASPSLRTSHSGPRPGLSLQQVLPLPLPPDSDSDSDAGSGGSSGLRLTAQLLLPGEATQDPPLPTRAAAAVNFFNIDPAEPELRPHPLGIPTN
T1 sequence (P50406 whole entry): as above

SMILES	retention for the familiar objects (novel object recognition) (recognition memory; [4])	% Imax [2] [%]	Ki [3] [nM]	also measured
CN(C)CCCOc1ccc2[nH]nc(S(=O)(=O)c3cccc4ccccc34)c2c1 [Test Compound B, N,N-dimethyl-3-{[3-(1-naphthylsulfonyl)-1H-indazol-5-yl]oxy}propan-1-amine]	neither Aricept (0.5 mg/kg, ip) alone nor Test Compound B (1 mg/kg, po) alone enhanced retention; also recorded: neither Razadyne (0.1 mg/kg, ip) alone nor Test Compound B (1 mg/kg, po) alone enhanced retention	–	–	effect on acetylcholine concentration (change from baseline) ([1]; Test Compound B 1 mg/kg p.o. alone): did not affect acetylcholine
O=S(=O)(c1ccccc1)n1ncc2c(N3CCNCC3)cccc21 [Test Compound D, 1-(phenylsulfonyl)-4-(1-piperazinyl)-1H-indazole]	–	100	0.6	–
COc1ccc2c3c1O[C@H]1C[C@@H](O)C=C[C@@]31CCN(C)C2 [Razadyne, galanthamine]	–	–	–	retention for the familiar objects (novel object recognition) (recognition memory; Razadyne 0. alone): neither Razadyne (0.1 mg/kg, ip) alone nor Test Compound B (1 mg/kg, po) alone enhanced retention
COc1cc2c(cc1OC)C(=O)C(CC1CCN(Cc3ccccc3)CC1)C2 (centres unmarked) [Aricept, donepezil]	–	–	–	retention for the familiar objects (novel object recognition) (recognition memory; Aricept 0.5 mg/kg ip alone): neither Aricept (0.5 mg/kg, ip) nor Test Compound A (1 mg/kg, po) alone enhanced retention; also recorded: produced no enhancement of recognition memory; also recorded: neither Aricept (0.5 mg/kg, ip) alone nor Test Compound B (1 mg/kg, po) alone enhanced retention; retention for the familiar objects (novel object recognition) (recognition memory; Aricept alone): enhanced retention for the familiar objects; increase in acetylcholine concentration (change from baseline) ([1]; Aricept 0.5 mg/kg i.p. alone): 50%
NCCOc1cccc2c(S(=O)(=O)c3cccc4ccccc34)n[nH]c12 [Test Compound C, (2-{[3-(1-naphthylsulfonyl)-1H-indazol-7-yl]oxy}ethyl)amine]	–	100	1.9	–
O=S(=O)(c1cccc2ccccc12)c1n[nH]c2ccc(N3CCNCC3)cc12 [Test Compound A, 3-(1-naphthylsulfonyl)-5-piperazin-1-yl-1H-indazole]	neither Aricept (0.5 mg/kg, ip) nor Test Compound A (1 mg/kg, po) alone enhanced retention	100	1.1	retention for the familiar objects (novel object recognition) (recognition memory; 5-HT6 antagonist 3 mg/kg po alone): enhanced retention for the familiar objects
